Patent US10294202B2, “Pyrrolidinones as herbicides” (FMC Corporation, priority 2013, dated 2019)

Key:
[1] = test system: velvetleaf; assay: Test A pre-/postemergence herbicide test; type: in vivo, Abutilon theophrasti
How it was run: (§1)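 Both application timings used compounds in a non-phytotoxic solvent plus surfactant. Pre-emergence: soil sprayed directly after seeding into loam/sand. Post-emergence: foliage of 2–10 cm seedlings (1–2 leaves) sprayed. Injury rated ~10 days later, 0–100.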

[2] = test system: kochia; assay: Test C pre-/postemergence herbicide test; type: in vivo, Kochia scoparia; settings: for Kochia plant response rating: scale 0 to 100, 0 is no effect and 100 is complete control
Source text: Seeds of plant species selected from blackgrass (Alopecurus myosuroides), ryegrass, Italian (Italian ryegrass, Lolium multiflorum), wheat (winter wheat, Triticum aestivum), galium (catchweed bedstraw, Galium aparine), corn (Zea mays), crabgrass, large (large crabgrass, Digitaria sanguinalis), foxtail, giant (giant foxtail, Setaria faberii), johnsongrass (Sorghum halepense), lambsquarters (Chenopodium album), morningglory (Ipomoea coccinea), nutsedge, yellow (yellow nutsedge, Cyperus esculentus), pigweed (Amaranthus retroflexus), ragweed (common ragweed, Ambrosia elatior), soybean (Glycine max), barnyardgrass (Echinochloa crus-galli), oilseed rape (Brassica napus), waterhemp (common waterhemp, Amaranthus rudis), kochia (Kochia scoparia), oat, wild (wild oat, Avena fatua), surinam grass (Brachiaria decumbens), foxtail, green (green foxtail, Setaria viridis), goosegrass (Eleusine indica), bromegrass, downy (downy bromegrass, Bromus tectorum), nightshade (eastern black nightshade, Solanum ptycanthum), cocklebur (common cocklebur, Xanthium strumarium), cupgrass, woolly (woolly cupgrass, Eriochloa villosa), bermudagrass (Cynodon dactylon), sunflower, (common oilseed sunflower, Helianthus annuus), Russian thistle (Salsola kali) and velvetleaf (Abutilon theophrasti) were planted into a blend of loam soil and sand and treated preemergence with test chemicals formulated in a non-phytotoxic solvent mixture which included a surfactant. At the same time, plants selected from these crop and weed species and also barley (winter barley, Hordeum vulgare), […]), chickweed (common chickweed, Stellaria media), deadnettle (henbit deadnettle, Lamium amplexicaule), and canarygrass (littleseed canarygrass, Phalaris minor) were planted in pots containing Redi-Earth® planting medium (Scotts Company, 14111 Scottslawn Road, Marysville, Ohio 43041) comprising spaghnum peat moss, vermiculite, wetting agent and starter nutrients and treated with postemergence applications of test chemicals formulated in the same manner. Plants ranged in height from 2 to 18 cm (1- to 4-leaf stage) for postemergence treatments. Treated plants and controls were maintained in a greenhouse for 13 to 15 days, after which time all species were compared to controls and visually evaluated. Plant response ratings, summarized in Table C, are based on a scale of 0 to 100 where 0 is no effect and 100 is complete control. A dash (-) response means no test result.

[3] = test system: barnyardgrass; assay: Test C flooded paddy test; type: in vivo, Echinochloa crus-galli; settings: Flood
How it was run: (§2)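 Visual injury scored against controls after 13 to 15 days in the greenhouse, using 0 (no effect) to 100 (complete control). Test compounds went straight into paddy water held 3 cm above the soil surface on 2-leaf-stage plants, with that flood depth maintained for the whole test.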

[4] = test system: ducksalad; assay: Test C flooded paddy test; type: in vivo, Heteranthera limosa; settings: Flood
How it was run: as §2

[5] = test system: ryegrass, Italian; assay: Test A pre-/postemergence herbicide test; type: in vivo, Lolium multiflorum
How it was run: as §1

[6] = test system: blackgrass; assay: Test A postemergence herbicide test; type: in vivo, Alopecurus myosuroides
How it was run: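 Blackgrass and galium grown in pots of loam soil–sand blend, treated postemergence at 2–10 cm height, one- to two-leaf stage. Plants kept in greenhouse ~10 days, then visually rated for injury against untreated controls on a 0–100 scale (0 no effect, 100 complete control).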

[7] = Postemergence, 1000 g ai/ha, 0 to 100 scale (0 no effect, 100 complete control)
[8] = Preemergence, 1000 g ai/ha, visual rating on 0 to 100 scale (0 no effect, 100 complete control), approx. 10 days
[9] = Preemergence, 62 g ai/ha, scale 0 to 100
[10] = Preemergence, 125 g ai/ha, scale 0 to 100 (0 no effect, 100 complete control)
[11] = Postemergence, 31 g ai/ha, scale 0 (no effect) to 100 (complete control)
[12] = Postemergence, 62 g ai/ha, scale 0 to 100 (0 no effect, 100 complete control)
[13] = Postemergence, 125 g ai/ha, scale 0 to 100 (0 no effect, 100 complete control)
[14] = Postemergence, 250 g ai/ha, scale 0 to 100 (0 no effect, 100 complete control)
[15] = 31 g ai/ha, scale of 0 to 100 where 0 is no effect and 100 is complete control, 13 to 15 days
[16] = 62 g ai/ha, scale of 0 to 100 where 0 is no effect and 100 is complete control, 13 to 15 days
[17] = 125 g ai/ha, scale of 0 to 100 where 0 is no effect and 100 is complete control, 13 to 15 days
[18] = Postemergence, 125 g ai/ha, 0 to 100 scale, 0 no effect, 100 complete control
[19] = Postemergence, 500 g ai/ha, 0 to 100 scale (0 no effect, 100 complete control)
[20] = Preemergence, 125 g ai/ha, visual rating on 0 to 100 scale (0 no effect, 100 complete control)
[21] = preemergence, 500 g ai/ha, 0 to 100 scale
[22] = Postemergence, 125 g ai/ha, visual rating on 0 to 100 scale (0 no effect, 100 complete control), approx. 10 days
[23] = Preemergence, 125 g ai/ha, 0 to 100 scale where 0 is no effect and 100 is complete control
[24] = preemergence, 500 g ai/ha, 0 to 100 scale, 0 is no effect and 100 is complete control
[25] = 125 g ai/ha, 0 to 100 scale, 0 is no effect, 100 is complete control
[26] = 500 g ai/ha, 0 to 100 scale (0 no effect, 100 complete control)
[27] = Postemergence, 31 g ai/ha, scale 0 to 100 (0 no effect, 100 complete control)
[28] = Postemergence, 62 g ai/ha, scale 0 (no effect) to 100 (complete control)
[29] = Preemergence, 500 g ai/ha, visual rating on 0 to 100 scale (0 no effect, 100 complete control)
[30] = 125 g ai/ha, visual rating on 0 to 100 scale (0 no effect, 100 complete control), approx. 10 days

Row | SMILES | Plant response rating, Kochia [2, 9] | Plant response rating, Kochia [2, 10] | Plant response rating, Kochia [2, 13] | Plant response rating, Kochia [2, 14] | Plant response rating, Velvetleaf [1, 18] | Plant response rating, Velvetleaf [1, 19] | Velvetleaf plant response rating [1, 20] | Plant response rating, Velvetleaf [1, 21] | also measured
1 | Cc1ccccc1NC(=O)C1C(=O)NCC1c1cc(F)c(F)c(F)c1 (racemic) [Compound 35] | 0 | 5 |  |  |  |  |  |  | Plant response rating, Velvetleaf [1, 7]: 0; Plant response rating, Velvetleaf [1, 8]: 0
2 | O=C1NCC(c2cc(F)c(F)c(F)c2)C1C(=O)Nc1ccccc1F (racemic) [Compound 34] | 0 | 0 | 5 | 5 |  |  |  |  | Plant response rating, Velvetleaf [1, 7]: 20; Plant response rating, Velvetleaf [1, 8]: 0; Plant response rating, Kochia [2, 11]: 5; Plant response rating, Kochia [2, 12]: 5
3 | O=C1NCC(c2ccc(F)cc2)C1C(=O)Nc1ccccc1F (racemic) [Compound 16] | 0 | 0 |  |  | 0 | 0 | 0 | 0 | Plant response rating, Barnyardgrass [3, 15]: 0; Plant response rating, Barnyardgrass [3, 16]: 0; Plant response rating, Barnyardgrass [3, 17]: 0; Plant response rating, Barnyardgrass ([3]; 250 g ai/ha, scale 0 to 100): 15; Plant response rating, Ducksalad [4, 15]: 0; Plant response rating, Ducksalad [4, 16]: 40; Plant response rating, Ducksalad [4, 17]: 85; Plant response rating, Ducksalad ([4]; 250 g ai/ha, scale 0 to 100): 100
4 | O=C1NCC(c2cc(F)cc(F)c2)C1C(=O)Nc1cccc(F)c1F (racemic) [Compound 279] |  |  | 85 | 35 |  |  |  |  | Plant response rating, Ryegrass, Italian [5, 22]: 0; Plant response rating, Ryegrass, Italian [5, 19]: 0; Plant response rating, Ryegrass, Italian [5, 23]: 0; Plant response rating, Ryegrass, Italian [5, 24]: 60; Plant response rating, Blackgrass [6, 25]: 60; Plant response rating, Blackgrass [6, 26]: 70; Plant response rating, Kochia [2, 27]: 0; Plant response rating, Kochia [2, 28]: 30
5 | O=C1NCC(c2cc(F)cc(F)c2)C1C(=O)Nc1ccc(F)cc1F (racemic) [Compound 278] |  |  | 0 | 5 |  |  |  |  | Plant response rating, Ryegrass, Italian [5, 22]: 0; Plant response rating, Ryegrass, Italian [5, 19]: 0; Plant response rating, Ryegrass, Italian [5, 23]: 0; Plant response rating, Ryegrass, Italian [5, 24]: 0; Plant response rating, Blackgrass [6, 25]: 30; Plant response rating, Blackgrass [6, 26]: 60; Plant response rating, Kochia [2, 27]: 0; Plant response rating, Kochia [2, 28]: 0
6 | O=C1NCC(c2cccc(Br)c2)C1C(=O)Nc1cccc(F)c1F (stereo not drawn) [Compound 309] |  |  |  | 75 |  |  |  |  | Plant response rating, Ryegrass, Italian [5, 22]: 10; Plant response rating, Ryegrass, Italian [5, 19]: 30; Plant response rating, Ryegrass, Italian [5, 23]: 0; Ryegrass, Italian plant response rating [5, 29]: 20; Plant response rating, Blackgrass [6, 30]: 60; Plant response rating, Blackgrass [6, 26]: 70; Plant response rating, Kochia [2, 27]: 5; Plant response rating, Kochia [2, 28]: 5
7 | O=C1NCC(c2ccc(F)c(C(F)(F)F)c2)C1C(=O)Nc1ccccc1F (racemic) [Compound 76] |  |  | 50 | 65 | 20 | 60 | 0 | 0 | Plant response rating, Kochia [2, 11]: 40; Plant response rating, Kochia [2, 12]: 50
8 | O=C1NCC(c2cccc(Br)c2)C1C(=O)Nc1ccccc1F (stereo not drawn) [Compound 66] | 0 | 10 |  |  | 0 | 0 | 0 | 0 | Kochia plant response rating ([2]; Preemergence, 31 g ai/ha): 0
9 | O=C1NCC(c2cccc(OC(F)(F)F)c2)C1C(=O)Nc1cccc(F)c1F (stereo not drawn) [Compound 68] | 0 | 0 |  |  | 20 | 20 | 0 | 0 | Kochia plant response rating ([2]; Preemergence, 31 g ai/ha): 0
10 | CN1CC(c2ccc(F)c(F)c2)C(C(=O)Nc2ccccc2F)C1=O (stereo not drawn) [Compound 302] |  |  | 0 | 60 |  |  |  |  | Plant response rating, Ryegrass, Italian [5, 22]: 0; Plant response rating, Ryegrass, Italian [5, 19]: 60; Plant response rating, Ryegrass, Italian [5, 23]: 0; Ryegrass, Italian plant response rating [5, 29]: 60; Plant response rating, Blackgrass [6, 30]: 40; Plant response rating, Blackgrass [6, 26]: 60; Plant response rating, Kochia [2, 27]: 0; Plant response rating, Kochia [2, 28]: 0
11 | O=C1NCC(c2ccc(F)c(Cl)c2)C1C(=O)Nc1cccc(F)c1F (stereo not drawn) [Compound 59] | 0 | 10 |  |  | 0 | 0 | 0 | 0 | 
12 | O=C1NCC(c2cc(F)c(F)c(F)c2)C1C(=O)Nc1ccccc1C(F)(F)F (racemic) [Compound 33] | 0 | 0 |  |  |  |  |  |  | Plant response rating, Velvetleaf [1, 7]: 20; Plant response rating, Velvetleaf [1, 8]: 0
13 | O=C1NCC(c2ccccc2)C1C(=O)Nc1ccccc1F (racemic) [Compound 81] |  |  | 0 | 0 | 0 | 0 | 0 | 0 | Plant response rating, Kochia [2, 11]: 0; Plant response rating, Kochia [2, 12]: 0
14 | O=C1NCC(c2ccc3c(c2)OC(F)(F)O3)C1C(=O)Nc1cccc(F)c1F (stereo not drawn) [Compound 62] | 0 | 15 |  |  | 0 | 0 | 0 | 0 | 
15 | O=C1NCC(c2ccc(Cl)c(F)c2)C1C(=O)Nc1ccccc1F (stereo not drawn) [Compound 53] | 0 | 0 |  |  | 0 | 0 | 0 | 0 | 
